One assay concerns Beta-TC-6 cells. In words: Insulin release enhancement in Beta-TC-6 cells (insulin ELISA). In kind it is cell-based, mouse. The conditions noted are these: for Percent Enhancement of Insulin Secretion (10 μM): compound at 10 μM; for glucose dependence of stimulation of insulin release: varying glucose concentration, FIG. 3 and FIG. 7. The method, then:
Beta-TC-6 cells are an insulin-secreting cell line derived from transgenic mice expressing the large T-antigen of simian virus 40 (SV40) in pancreatic beta-cells as described by Poitout et al., Diabetes, 44:306-313 (1995). The cell line was obtained from ATCC cell bank CAT# CRL-11506 and grown in Dulbecco's Modified Eagle's Medium (DMEM) with 15% fetal bovine serum (FBS), 4 mM glutamine, 4.5 mM glucose 1500 mg/L sodium bicarbonate and 1× penn/strep antibiotic mix in a 37° C. incubator with 5% CO2. Cultures were routinely split 1:2 twice a week with the aid of trypsin.
On the day before the assay 0.1×10^6 Beta-TC-6 cells were plated into each well of 96 well plates, and the cells cultured overnight in growth media.
On the next day, growth media was removed from the plate and the monolayers rinsed with phosphate buffered saline (PBS) and pre-incubated 30 mins at 37° C. in Krebs-Ringer Bicarbonate Buffer (KRBB) consisting of 118.5 mM NaCl, 2.54 mM CaCl2, 1.19 mM KH2PO4, 4.74 mM KCl, 25 mM NaHCO3, 1.19 mM MgSO4, 10 mM HEPES buffer and 0.1% bovine serum albumin at pH 7.4. This buffer was removed and replaced with 100 μL of the same buffer containing various insulin release modulators: including various concentrations of glucose up to 12 mM and compounds up to 100 μM. Compounds stock solutions, e.g. 10-20 mM, were diluted in DMSO. Final DMSO concentrations in incubation buffer were 0.5% or less. Vehicle controls were included. Static incubations were then performed for 2 h at 37° C. The entire incubation volume was collected after the 2 h incubation for insulin assay.
ELISA Protocol for insulin determinations. The following protocol was used for doing ELISA using the Rat/Mouse Insulin ELISA Kit from Linco Research, Inc., CAT#EZRMI-13K and Amplex® Red Hydrogen Peroxide/Peroxidase Assay Kit, CAT#A22188, and Amplex® Red reagent (10-acetyl-3,7-dihydroxyphenoxazine) CAT#A12222.
All reagents were Pre-warmed to room temperature before setting up experiment.
1. Dilute the 10× washing buffer into 1× washing buffer. 50 mL+450 mL de-ionized water. Do 1:10 dilution to the cell culture supernatant (Beta-TC-6 cell incubation).
2. Use one column (8 wells) wells for standard samples and QC1 and QC2, typically 0 and 5 ng/mL of insulin. On some plates full standard curves for insulin obtained as shown below.
3. Cover the unused wells well. Wash each well 3 times with 300 μL of 1× washing buffer each time. (2 minutes each washing step on the shaker.) Decant Wash Buffer and remove the residual amount from all wells by inverting the plate and tapping it smartly onto absorbent towels several times.
4. Add 20 μL Assay Buffer into that blank well and 10 μL into those wells for standards and samples.
5. Add 10 μL rat insulin standards and samples to the appropriate wells.
6. Add 80 μL Detection Antibody to all wells. Cover the plate and incubate at room temperature for 2 hours.
7. Tear off the plate cover and decant solutions from the plate. Tap to remove residual solutions in well.
8. Wash well 3 times with diluted wash buffer 300 μL per well per wash (2 minutes each washing step on the shaker). Tap to remove residual solutions as before.
9. Add 100 μL Enzyme Solution to each well. Cover plate with sealer and incubate with moderate shaking at room temperature for 30 min on the microtiter plate shaker.
10. Remove sealer, decant solutions from the plate and tap plate to remove the residual fluid.
11. Wash wells 6 times with diluted Wash Buffer, 300 μL per well per wash. Decant and tap after each wash to remove residual buffer.
12. Prepare 5 mL working solution of […] Amolex Red reagent containing 2.0 mM H2O2. 4.45 mL of 1× Reaction buffer+50 μL 10 mM Amplex Reagent+500 μL 20 mM H2O2.
13. Add 100 μL of the Amplex Red reagent/H2O2 to each well.
14. Incubate the reactions. Incubate at room temperature for 30 minutes, protected from light (using foil to wrap the plate). […]
For orientation: An ELISA detects its analyte on a solid surface through an enzyme-linked reagent.

A further assay addresses T1, TRPM5 (Homo sapiens, UniProt Q9NZQ8).
T1 sequence (Q9NZQ8 1-1165): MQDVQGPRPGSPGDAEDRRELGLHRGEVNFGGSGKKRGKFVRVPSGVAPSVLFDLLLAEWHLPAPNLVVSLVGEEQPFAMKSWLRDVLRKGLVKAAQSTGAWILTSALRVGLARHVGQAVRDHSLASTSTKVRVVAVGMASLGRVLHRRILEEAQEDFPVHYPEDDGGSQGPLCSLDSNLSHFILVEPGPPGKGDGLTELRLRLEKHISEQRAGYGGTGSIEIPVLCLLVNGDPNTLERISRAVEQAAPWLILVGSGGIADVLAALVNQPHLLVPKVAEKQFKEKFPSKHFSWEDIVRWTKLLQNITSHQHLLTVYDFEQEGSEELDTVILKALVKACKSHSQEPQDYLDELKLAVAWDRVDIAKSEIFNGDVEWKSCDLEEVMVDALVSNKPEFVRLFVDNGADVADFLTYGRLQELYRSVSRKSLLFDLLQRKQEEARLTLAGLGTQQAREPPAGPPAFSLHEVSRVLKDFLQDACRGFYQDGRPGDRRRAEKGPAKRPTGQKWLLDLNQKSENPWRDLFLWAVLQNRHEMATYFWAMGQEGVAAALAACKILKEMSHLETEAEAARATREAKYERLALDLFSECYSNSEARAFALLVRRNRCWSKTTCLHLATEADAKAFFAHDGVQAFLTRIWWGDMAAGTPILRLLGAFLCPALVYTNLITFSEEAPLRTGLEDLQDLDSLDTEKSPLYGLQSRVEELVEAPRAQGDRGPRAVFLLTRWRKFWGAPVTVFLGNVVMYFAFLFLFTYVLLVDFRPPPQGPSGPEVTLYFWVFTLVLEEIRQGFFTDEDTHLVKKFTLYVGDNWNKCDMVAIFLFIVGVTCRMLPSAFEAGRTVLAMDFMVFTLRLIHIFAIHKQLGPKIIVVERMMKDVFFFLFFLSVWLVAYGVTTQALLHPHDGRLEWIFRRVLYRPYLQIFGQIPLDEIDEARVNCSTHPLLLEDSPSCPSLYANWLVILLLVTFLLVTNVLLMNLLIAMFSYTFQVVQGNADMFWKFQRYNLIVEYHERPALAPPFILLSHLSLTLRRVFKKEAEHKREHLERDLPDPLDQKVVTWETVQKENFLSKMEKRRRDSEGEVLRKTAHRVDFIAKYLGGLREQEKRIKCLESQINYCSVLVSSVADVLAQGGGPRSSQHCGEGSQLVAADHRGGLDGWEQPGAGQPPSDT
Description: TRPM5 inhibition (FLIPR Membrane Potential Assay). In kind it is cell-based.

The test system of assay [1] is calcium-activated current in Beta TC6 cells. Description: Whole-cell electrophysiology of calcium-activated current in Beta TC6 cells. In kind it is cell-based, mouse. The conditions noted are these: pulsed doses, current versus time, FIG. 13. The method, then: Whole-cell recordings of TRP channel currents were obtained from acutely trypsinized beta TC-6 cells and TRPM5-expressing HEK cells. The bath solution was Hank's Balanced Salt Solution, composed of (mM); 1.2 CaCl2, 0.5 MgCl2-6H2O, 0.4 MgSO4.7H2O, 5.3 KCl, 0.4 KH2PO4, 137.9 NaCl, 0.3 Na2HPO4.7H2O, and 5.5 D-Glucose, with 20 mM HEPES (Invitrogen), pH 7.4 (NaOH). The internal pipette solution contained, in mM: 135 glutamic acid, 8 NaCl, 9 CaCl2, 10 HEPES and 10 EGTA, pH 7.2 (CsOH) (Sigma). Calculated concentration of free calcium in internal solution was 1.5 μM (http://www.stanford.edu/˜cpatton/webmaxc/webmaxcS.htm). Recording pipettes were pulled using a Flaming/Brown Micropipette Puller (Sutter Instruments), from fire-polished borosilicate glass, to approximately 2 MΩ.
Voltage clamp recordings were obtained in whole cell mode using MultiClamp 700B amplifier and Digidata 1322A converter running on Clampex 9.2 software (Axon Instruments). Recordings were performed at room temperature. The recording protocol consisted of a ramp from −80 mV potential to +80 mV, followed by a step to −80 mV. Peak current was measured at three different voltages: −80 mV, after ramping to +80 mV, then following a return to −80 mV. Series resistance was automatically compensated immediately after the break-in, and the resulting capacitance measurements were used for current density calculations. […]

Where [2] appears, read: compared to glucose-dependent insulin production.

Four compounds from patent US8193168B2, “Use of a TRPM5 inhibitor to regulate insulin and GLP-1 release” (Redpoint Bio Corporation, priority 2007, dated 2012) can be followed below.

Regarding `COc1ccc(/C=N/NC(=O)C2CC2c2ccccc2)cc1OC` (centres unmarked) [Example 4, (E)-N′-(3,4-Dimethoxybenzylidene)-2-phenylcyclopropanecarbohydrazide], the “effect on insulin secretion in combination with tolbutamide” value with Beta-TC-6 cells (FIG. 6) is “additive effects”. Moreover, in the assay on Beta-TC-6 cells (setting [2]), the “Percent Enhancement of Insulin Secretion (10 μM)” value (shortened to “Percent Enhancement … (10 μM)”) is reported as 111%. Besides, the “glucose dependence of stimulation of insulin release” value with Beta-TC-6 cells is recorded as “increases insulin secretion in a glucose-dependent manner”. Besides, half-maximal inhibition on TRPM5 (IC50) was put at 600 nM. Moreover, the “inhibition of calcium-activated current” value in assay [1] is on record as “inhibition of the current”.

`COc1ccc(/C=N/NC(=O)COc2cccc(C)c2)cc1OC` [Example 8, (E)-N′-(3,4-Dimethoxybenzylidene)-2-(m-tolyloxy)acetohydrazide]: the “Percent Enhancement … (10 μM)” value in the assay with Beta-TC-6 cells (setting [2]) was 39%. On TRPM5, this compound yielded an IC50 of 3000 nM.

Consider `COc1ccc(/C=N/NC(=O)CSc2cc(C)c3cccc(C)c3n2)cc1OC` [Example 24, (4,8-Dimethylquinolin-2-ylsulfanyl)acetic acid (3,4-dimethoxybenzylidene)hydrazide], for which the “Percent Enhancement … (10 μM)” value in the assay with Beta-TC-6 cells (setting [2]) worked out at 207%. This compound also yielded an IC50 on TRPM5 of 400 nM.

Take `CCCCNC(=O)NS(=O)(=O)c1ccc(C)cc1` [Tolbutamide, tolbutamide, reference compound]: the “Percent Enhancement of Insulin Secretion” value in the assay with Beta-TC-6 cells (tolbutamide tested at 30 μM, compared to glucose-dependent insulin production) is reported as 228%. In the assay on Beta-TC-6 cells, the “glucose dependence of stimulation of insulin release” value is “not sensitive to glucose levels”.

By IC50 is commonly meant the concentration that gives 50% inhibition. Low values mean greater potency in that assay, high ones weaker potency in that assay.
